Results taken from patent US7867750B2, “Method for anaerobic degradation of fuel oxygenates and similar compounds” (Rutgers, The State University of New Jersey, priority 2006, dated 2011).
Entries after “also recorded” stand apart in the source; their conditions may differ.

Experiments:
[1] = MTBE loss in abiotic controls (methanogenic and sulfate-reducing media); format: physicochemical
Experimental: To examine the carbon isotope fractionation during anaerobic MTBE degradation, eight batch experiments are set up. Four serum bottles, each containing 100 ml of sulfate-reducing AK enrichment, are prepared as described above. Sodium molybdate (20 mM), a specific inhibitor of sulfate reduction, is added to two sulfate-reducing AK cultures. The two remaining cultures are kept under conditions promoting sulfate reduction. From the CC enrichment, two of the 100-ml cultures are prepared for each methanogenic and sulfate-reducing enrichment. Each culture had been enriched individually from separate CC sediment microcosms and had never been combined. Methanogenic and sulfate-reducing media are used as abiotic controls. Anaerobic MTBE stock solution is added to all live enrichments and abiotic controls to a final concentration of 25 to 30 mg liter^−1. […] The headspace MTBE concentrations of the cultures are monitored over time. […]
The concentration of MTBE is determined by a static headspace method. A 100-μl headspace sample is analyzed for MTBE with a Hewlett-Packard 5890 gas chromatograph (GC) equipped with a DB1 column (0.53 mm by 30 m; J&W Scientific, Folsom, Calif.) and a flame ionization detector with He as the carrier gas. […] For quantification, external aqueous standards of 3.0, 9.0, 15.0, and 30.0 mg liter^−1 for each compound are used. […]

MTBE-utilizing culture [2] = assay: Effect of methoxylated aromatic compounds as co-substrates on MTBE utilization; format: cell-based; settings: for lag period of MTBE utilization: 80 μM co-substrate added with MTBE; for effect on MTBE utilization/degradation rate: 80 μM co-substrate, first spiking; for effect on MTBE degradation rate: repeated spiking with MTBE + O-methyl aryl ether
[3] = test system: Coronado Cays sediment microcosms (methanogenic and sulfate-reducing); assay: Development of MTBE-degrading enrichments from Coronado Cays sediment microcosms; format: cell-based; settings: sediment with 5 mM lactate, sodium molybdate present
[4] = test system: sulfate-reducing Arthur Kill enrichment; assay: Anaerobic MTBE biodegradation and carbon isotope fractionation, batch experiment; format: cell-based; settings: 20 mM sodium molybdate, inhibitor of sulfate reduction
MTBE-utilizing culture [5] = assay: MTBE utilization in the presence of various concentrations of syringate; format: cell-based

COC(C)(C)C [MTBE, Methyl tert-butyl ether]
MTBE loss in abiotic controls ([1]; both CC experiments, over 60 days): < 10%
MTBE lost in abiotic controls ([1]; end of the Arthur Kill experiment): 13%

COc1ccccc1O [guaiacol]
lag period of MTBE utilization (MTBE-utilizing culture [2]): comparable to the culture receiving MTBE alone
effect on MTBE utilization/degradation rate (MTBE-utilizing culture [2]): adverse effect on MTBE degradation; also recorded: more severe than that of vanillate; also recorded: decrease
effect on MTBE degradation rate (MTBE-utilizing culture [2]): increased rate of degradation

[Na+].[Na+].[O]=[Mo](=[O])([O-])[O-] [molybdate, sodium molybdate]
effect on sulfate reduction [3]: No significant loss of sulfate
effect on MTBE utilization rate [4]: decreases drastically

COc1cc(C(=O)O)cc(OC)c1O [syringate, syringic acid]
effect on MTBE utilization (MTBE-utilizing culture [5]; 50 μM syringate): enhances MTBE utilization
time in which MTBE is utilized (MTBE-utilizing culture [5]; 50 μM syringate as co-substrate): less than 80 days
effect on MTBE utilization (MTBE-utilizing culture [5]; 100 μM syringate): enhances MTBE utilization
effect on MTBE utilization (MTBE-utilizing culture [5]; 500 μM syringate): slightly increases MTBE-degrading activity
effect on MTBE utilization (MTBE-utilizing culture [5]; 750 μM syringate): slight inhibitory effect on MTBE utilization
effect on MTBE utilization (MTBE-utilizing culture [5]; 1000 μM syringate): limited MTBE utilization
lag period of MTBE utilization (MTBE-utilizing culture [2]): 55 days
effect on MTBE utilization/degradation rate (MTBE-utilizing culture [2]): enhances the MTBE utilization rate
effect on MTBE utilization/degradation rate (MTBE-utilizing culture [2]; listed as syringic acid): increased the degradation rate
effect on MTBE degradation rate (MTBE-utilizing culture [2]): increased rate of degradation

COc1cc(C(=O)O)ccc1O [vanillate, vanillic acid]
lag period of MTBE utilization (MTBE-utilizing culture [2]): comparable to the culture receiving MTBE alone
effect on MTBE utilization/degradation rate (MTBE-utilizing culture [2]): adverse effect on MTBE degradation; also recorded: decrease
effect on MTBE degradation rate (MTBE-utilizing culture [2]): increased rate of degradation
